System: P388
Assay: Induction of apoptosis in P388D1 cell line
Assay type: functional, Mus musculus, DBA/2
Parameters: concentration or dose not given beside the values

Row | Structure (SMILES) | Activity [%]
1 | O=C(CCCCCCCc1ccccc1)CC(=O)N[C@H]1CCOC1=O | 25.2
2 | O=C(CCCCCCCCCO)CC(=O)N[C@H]1CCOC1=O | 109.5
3 | CCCCCCCCC(=O)CCC(=O)N[C@H]1CCOC1=O | 115.6
4 | O=C(CCCCCCCCCCCc1ccccc1)CC(=O)N[C@H]1CCOC1=O | 12.2
5 | CCCCCCCCCC(=O)CC(=O)N[C@H]1CCCC[C@@H]1O | 96.2
6 | CCCCCCCCCC(=O)CC(=O)Nc1ccccc1O | 109.6
7 | CCCCCCCC(=O)CCCC(=O)N[C@H]1CCOC1=O | 97.7
8 | O=C(CCCCCCCC1CC1)CC(=O)N[C@H]1CCOC1=O | 38.7
9 | O=C(CCCCCc1ccccc1)CC(=O)N[C@H]1CCOC1=O | 122
10 | O=C(CCCCCC1CC1)CC(=O)N[C@H]1CCOC1=O | 122.9
11 | CCCCCCCCCC(=O)CC(=O)N[C@@H](C)C(=O)OC | 111.2
12 | O=C(CCCCCCCCCc1ccccc1)CC(=O)N[C@H]1CCOC1=O | 14.5
13 | CCCC(=O)N[C@H]1CCOC1=O | 100.4
14 | CCCCC(=O)CC(=O)N[C@H]1CCOC1=O | 111
15 | CCCCCCCCCCCC(=O)N[C@H]1CCOC1=O | 91.1
16 | O=C(O)CCC(=O)OCCCCCCCCCC(=O)CC(=O)N[C@H]1CCOC1=O | 114
17 | CCCCC(=O)N[C@H]1CCOC1=O | 101.8
18 | CCCCCCCCCCCC(=O)CC(=O)N[C@H]1CCOC1=O | 14.8
19 | CCCCCCCC(=O)CC(=O)N[C@H]1CCOC1=O | 107.7
20 | CCCCCCCCCC(=O)CC(=O)N[C@H]1CCOC1=O | 31.9
21 | CCCCCCCCCC(=O)CC(=O)N[C@@H]1CCOC1=O | 105

Reference: ChEMBL document CHEMBL1146944, “Synthesis of Pseudomonas quorum-sensing autoinducer analogs and structural entities required for induction of apoptosis in macrophages” (2006)
